Experimental data from the Kinase Knowledgebase extract (Sharma et al. 2016).

Biological target: MAPK14 (human) (UniProt Q16539)
Assay: Enzyme Assay

Sequence of MAPK14 (human) (Q16539 whole entry, looked up): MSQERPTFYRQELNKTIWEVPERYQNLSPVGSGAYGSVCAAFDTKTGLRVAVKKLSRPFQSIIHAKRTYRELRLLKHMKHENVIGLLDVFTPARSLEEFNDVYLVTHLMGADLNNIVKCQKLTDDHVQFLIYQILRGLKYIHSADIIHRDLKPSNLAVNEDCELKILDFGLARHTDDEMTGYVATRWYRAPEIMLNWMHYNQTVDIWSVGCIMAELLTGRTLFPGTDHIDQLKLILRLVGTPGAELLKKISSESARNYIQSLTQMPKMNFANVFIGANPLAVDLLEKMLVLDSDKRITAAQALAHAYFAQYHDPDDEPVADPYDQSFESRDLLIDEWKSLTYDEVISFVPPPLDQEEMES

IC50 [nM]	SMILES
< 10	Cc1ccc(-n2nc(C(C)(C)C)cc2NC(=O)N[C@H]2CC[C@@H](Oc3ccc4nnc(N5CCC[C@H]5CO)n4c3)c3ccccc32)cc1
10 to 100	Cc1ccc(-n2nc(C(C)(C)C)cc2NC(=O)N[C@H]2CC[C@@H](Oc3ccc4nnc(-c5ccc(CN6CCOCC6)nc5)n4c3)c3ccccc32)cc1
< 10	C[C@@H]1CCC[C@H](C)N1c1nnc2ccc(O[C@@H]3CC[C@H](NC(=O)Nc4cc(C(C)(C)C)nn4-c4cccc(OCCN(C)C)c4)c4ccccc43)cn12
< 10	Cc1ccc(-n2nc(C(C)(C)C)cc2NC(=O)N[C@H]2CC[C@@H](Oc3ccc4nnc([C@@H]5CCCN5C)n4c3)c3ccccc32)cc1
< 10	CCN(CC)CCOc1cccc(-n2nc(C(C)(C)C)cc2NC(=O)N[C@H]2CC[C@@H](Oc3ccc4nnc(N5CCCC[C@@H]5C)n4c3)c3ccccc32)c1
< 10	COCCN(C)Cc1cccc(-n2nc(C(C)(C)C)cc2NC(=O)N[C@H]2CC[C@@H](Oc3ccc4nnc(N5CCCC[C@@H]5C)n4c3)c3ccccc32)c1
< 10	COc1c(NC(=O)N[C@H]2CC[C@@H](Oc3ccc4nnc([C@@H]5CCCN5C)n4c3)c3ccccc32)cc(C(C)(C)C)cc1NS(C)(=O)=O
< 10	CN1CCC[C@H]1c1nnc2ccc(O[C@@H]3CC[C@H](NC(=O)Nc4cc(C(C)(C)C)nn4-c4cccc(CO)c4)c4ccccc43)cn12
< 10	Cc1ccc(-n2nc(C(C)(C)C)cc2NC(=O)N[C@H]2CC[C@H](Oc3ccc4nnc([C@@H]5CCCN5C)n4c3)c3ccccc32)cc1
< 10	C[C@H]1CCCCN1c1nnc2ccc(O[C@@H]3CC[C@H](NC(=O)Nc4cc(C(C)(C)C)nn4CCN4CCOCC4)c4ccccc43)cn12
< 10	Cc1ccc(-n2nc(C(C)(C)C)cc2NC(=O)N[C@H]2CC[C@@H](Oc3ccc4nnc(N5CCN(C)CC5)n4c3)c3ccccc32)cc1
< 10	Cc1ccc(-n2nc(C(C)(C)C)cc2NC(=O)N[C@H]2CC[C@@H](Oc3ccc4nnc(N5CCC[C@H](O)C5)n4c3)c3ccccc32)cc1
< 10	C[C@H]1CCCCN1c1nnc2ccc(O[C@@H]3CC[C@H](NC(=O)Nc4cc(C(C)(C)C)nn4-c4cccc(OCCN5CCCCC5)c4)c4ccccc43)cn12
< 10	Cc1ccc(-n2nc(C(C)(C)C)cc2NC(=O)N[C@H]2CC[C@@H](Oc3ccc4nnc(N5CCN(CCO)CC5)n4c3)c3ccccc32)cc1
< 10	C[C@@H]1CCC[C@H](C)N1c1nnc2ccc(O[C@@H]3CC[C@H](NC(=O)Nc4cc(C(C)(C)C)nn4CCN4CCOCC4)c4ccccc43)cn12
< 10	C[C@H]1COCCN1c1nnc2ccc(O[C@@H]3CC[C@H](NC(=O)Nc4cc(C(C)(C)C)nn4-c4cccc(OCCN(C)C)c4)c4ccccc43)cn12
< 10	Cc1ccc(-n2nc(C(C)(C)C)cc2NC(=O)N[C@H]2CC[C@@H](Oc3ccc4nnc(N5CCCC[C@H]5C)n4c3)c3ccccc32)cc1

IC50 [nM]	SMILES
< 10	C[C@H]1CCCCN1c1nnc2ccc(O[C@@H]3CC[C@H](NC(=O)Nc4cc(C(C)(C)C)nn4-c4cccc(OCCN5CCN(C)CC5)c4)c4ccccc43)cn12
< 10	CC(C)(C)c1cc(NC(=O)N[C@H]2CC[C@@H](Oc3ccc4nnc(N5CCCCC5)n4c3)c3ccccc32)n(-c2cccc(CN3CCC(O)CC3)c2)n1
< 10	CN1CCC[C@H]1c1nnc2ccc(O[C@H]3C[C@H](NC(=O)Nc4cc(C(C)(C)C)nn4-c4ccc(CO)cc4)c4ccccc43)cn12
< 10	C[C@H]1CCCCN1c1nnc2ccc(O[C@@H]3CC[C@H](NC(=O)Nc4cc(C(C)(C)C)nn4-c4ccc(CN5CCOCC5)cc4)c4ccccc43)cn12
100 to 500	Cc1ccc(-n2nc(C(C)(C)C)cc2NC(=O)N[C@H]2CC[C@@H](OCCN3CCOCC3)c3ccccc32)cc1
< 10	Cc1ccc(-n2nc(C(C)(C)C)cc2NC(=O)N[C@H]2CC[C@@H](Oc3ccc4nnc(N5CCC(O)CC5)n4c3)c3ccccc32)cc1
< 10	C[C@H]1CCCCN1c1nnc2ccc(O[C@@H]3CC[C@H](NC(=O)Nc4cc(C(C)(C)C)nn4-c4cccc(CCN5CCCC5)c4)c4ccccc43)cn12
< 10	C[C@H]1CCCCN1c1nnc2ccc(O[C@@H]3CC[C@H](NC(=O)Nc4cc(C(C)(C)C)nn4-c4cccc(OCCN5CCC(F)CC5)c4)c4ccccc43)cn12
< 10	Cc1ccc(-n2nc(C(C)(C)C)cc2NC(=O)N[C@H]2CC[C@@H](Oc3ccc4nnc(N5CC[C@H](CO)C5)n4c3)c3ccccc32)cc1
< 10	CCN(C)CCc1cccc(-n2nc(C(C)(C)C)cc2NC(=O)N[C@H]2CC[C@@H](Oc3ccc4nnc(N5CCCC[C@@H]5C)n4c3)c3ccccc32)c1
< 10	C[C@H]1CCCCN1c1nnc2ccc(O[C@@H]3CC[C@H](NC(=O)Nc4cc(C(C)(C)C)nn4-c4cccc(CCN5CCCN(C)CC5)c4)c4ccccc43)cn12
< 10	CN(C)CCn1cnc(-n2nc(C(C)(C)C)cc2NC(=O)N[C@H]2CC[C@@H](Oc3ccc4nnc(N5CCCCC5)n4c3)c3ccccc32)c1
< 10	C[C@H]1CCCCN1c1nnc2ccc(O[C@@H]3CC[C@H](NC(=O)Nc4cc(C(C)(C)C)nn4-c4cccc(OCCN5CCOCC5)c4)c4ccccc43)cn12
< 10	CN1CCC[C@H]1c1nnc2ccc(O[C@@H]3CC[C@H](NC(=O)Nc4cc(C(C)(C)C)nn4-c4ccc(O)cc4)c4ccccc43)cn12
< 10	Cc1ccc(-n2nc(C(C)(C)C)cc2NC(=O)N[C@H]2CC[C@H](Oc3ccc4nnc(N5CCCCC5)n4c3)c3ccccc32)cc1
< 10	COC1CCN(Cc2cccc(-n3nc(C(C)(C)C)cc3NC(=O)N[C@H]3CC[C@@H](Oc4ccc5nnc(N6CCCC[C@@H]6C)n5c4)c4ccccc43)c2)CC1
< 10	C[C@@H]1CCC[C@H](C)N1c1nnc2ccc(O[C@@H]3CC[C@H](NC(=O)Nc4cc(C(C)(C)C)nn4-c4cccc(CN5CCOCC5)c4)c4ccccc43)cn12

Second part, the compound before the results:

SMILES	IC50 [nM]
C[C@H]1CCCCN1c1nnc2ccc(O[C@@H]3CC[C@H](NC(=O)Nc4cc(C(C)(C)C)nn4-c4cccc(CN5CCC(F)CC5)c4)c4ccccc43)cn12	< 10
Cc1ccc(-n2nc(C(C)(C)C)cc2NC(=O)N[C@H]2CC[C@@H](Oc3ccc4nnc(N(C)C)n4c3)c3ccccc32)cc1	< 10
Cc1ccc(-n2nc(C(C)(C)C)cc2NC(=O)N[C@H]2CC[C@@H](Oc3ccc4nnc(C(C)(C)N(C)C)n4c3)c3ccccc32)cc1	< 10
Cc1ccc(-n2nc(C(C)(C)C)cc2NC(=O)N[C@H]2CC[C@@H](Oc3ccc(C#N)nc3)c3ccccc32)cc1	< 10
CC(C)(C)c1cc(NC(=O)N[C@H]2CC[C@@H](Oc3ccc4nnc(N5CCCCC5)n4c3)c3ccccc32)n(-c2cccc(CN3CCN(CCO)CC3)c2)n1	< 10
Cc1ccc(-n2nc(C(C)(C)C)cc2NC(=O)N[C@H]2CC[C@@H](Oc3ccc4nnc(N5CC[C@@H](O)C5)n4c3)c3ccccc32)cc1	< 10
CC(C)(C)c1cc(NC(=O)N[C@H]2CC[C@@H](Oc3ccc4nnc(N5CCCCC5)n4c3)c3ccccc32)n(-c2ccc(CO)cc2)n1	< 10
CN(C)CCOc1cccc(-n2nc(C(C)(C)C)cc2NC(=O)N[C@H]2CC[C@@H](Oc3ccc4nnc(N5CC6CCC(C6)C5)n4c3)c3ccccc32)c1	< 10
CC(C)(C)c1cc(NC(=O)N[C@H]2CC[C@@H](Oc3ccc4nnc(N5CCCCC5)n4c3)c3ccccc32)n(-c2cccc(OCCO)c2)n1	< 10
C[C@H]1CCCCN1c1nnc2ccc(O[C@@H]3CC[C@H](NC(=O)Nc4cc(C(C)(C)C)nn4CCO)c4ccccc43)cn12	< 10
C[C@@H]1CCC[C@H](C)N1c1nnc2ccc(O[C@@H]3CC[C@H](NC(=O)Nc4cc(C(C)(C)C)nn4-c4cccc(CN5CCCC5)c4)c4ccccc43)cn12	< 10
Cc1ccc(-n2nc(C(C)(C)C)cc2NC(=O)N[C@H]2CC[C@@H](Oc3ccc4nnc([C@]5(CO)CCCN5C)n4c3)c3ccccc32)cc1	< 10
Cc1ccc(-n2nc(C(C)(C)C)cc2NC(=O)N[C@H]2CC[C@@H](Oc3ccc4nnc(CC5CCN(CC(F)F)CC5)n4c3)c3ccccc32)cc1	< 10
C[C@H]1CCCCN1c1nnc2ccc(O[C@@H]3CC[C@H](NC(=O)Nc4cc(C(C)(C)C)nn4-c4cccc(CN5CCCC5)c4)c4ccccc43)cn12	< 10
Cc1ccc(-n2nc(C(C)(C)C)cc2NC(=O)N[C@H]2CC[C@@H](Oc3ccc4nnc(N5CCC[C@@H](O)C5)n4c3)c3ccccc32)cc1	< 10
C[C@@H]1CCC[C@H](C)N1c1nnc2ccc(O[C@@H]3CC[C@H](NC(=O)Nc4cc(C(C)(C)C)nn4CCO)c4ccccc43)cn12	< 10
C[C@H]1CCCCN1c1nnc2ccc(O[C@@H]3CC[C@H](NC(=O)Nc4cc(C(C)(C)C)nn4-c4cccc(CCN5CCN(C)CC5)c4)c4ccccc43)cn12	< 10
Cc1ccc(-n2nc(C(C)(C)C)cc2NC(=O)N[C@H]2CC[C@@H](Oc3ccc4nnc(CCN5CCN(C)CC5)n4c3)c3ccccc32)cc1	< 10
Cc1ccc(-n2nc(C(C)(C)C)cc2NC(=O)N[C@H]2CC[C@@H](Oc3ccc4nnc(N5[C@H](C)CCC[C@@H]5C)n4c3)c3ccccc32)cc1	< 10
Cc1ccc(-n2nc(C(C)(C)C)cc2NC(=O)N[C@H]2CC[C@@H](Oc3ccc4nnc(N5CCC(C(C)(C)O)CC5)n4c3)c3ccccc32)cc1	< 10
C[C@@H]1CCC[C@H](C)N1c1nnc2ccc(O[C@@H]3CC[C@H](NC(=O)Nc4cc(C(C)(C)C)nn4-c4cccc(CN5CCN(C)CC5)c4)c4ccccc43)cn12	< 10
Cc1ccc(-n2nc(C(C)(C)C)cc2NC(=O)N[C@H]2CC[C@@H](Oc3ccc4nnc([C@@H]5C[C@@H](F)CN5C)n4c3)c3ccccc32)cc1	< 10
Cc1ccc(-n2nc(C(C)(C)C)cc2NC(=O)N[C@H]2CC[C@@H](Oc3ccc4nnc([C@@H]5CC(C)(C)CN5C)n4c3)c3ccccc32)cc1	< 10
Cc1ccc(-n2nc(C(C)(C)C)cc2NC(=O)N[C@H]2CC[C@@H](Oc3ccc4nnc(N(C)CCO)n4c3)c3ccccc32)cc1	< 10
Cc1ccc(-n2nc(C(C)(C)C)cc2NC(=O)N[C@H]2CC[C@@H](Oc3ccc4nnc([C@H]5CCCN5C)n4c3)c3ccccc32)cc1	< 10
CC(C)(C)c1cc(NC(=O)N[C@H]2CC[C@@H](Oc3ccc4nnc(N5CCCCC5)n4c3)c3ccccc32)n(-c2cccc(SCCO)c2)n1	< 10
C[C@H]1CCCCN1c1nnc2ccc(O[C@@H]3CC[C@H](NC(=O)Nc4cc(C(C)(C)C)nn4-c4cccc(CN5CCOCC5)c4)c4ccccc43)cn12	< 10
Cc1ccc(-n2nc(C(C)(C)C)cc2NC(=O)N[C@H]2CC[C@@H](Oc3ccc4nnc(N5CCC[C@H](CO)C5)n4c3)c3ccccc32)cc1	< 10
